The results in this text go back to patent US12312359B2 (Vitae Pharmaceuticals, LLC, priority 2016, dated 2025).

Assay [1] concerns the target T1, biotinylated wild-type menin and MLL-AF9 fusion protein (menin/MLL binding) (Homo sapiens, UniProt O00255).
T1 construct: made in house; host or cells: menin: E. coli; MLL-AF9-FLAG: HEK293 cells, used as cleared lysate
T1 sequence (O00255 1-610): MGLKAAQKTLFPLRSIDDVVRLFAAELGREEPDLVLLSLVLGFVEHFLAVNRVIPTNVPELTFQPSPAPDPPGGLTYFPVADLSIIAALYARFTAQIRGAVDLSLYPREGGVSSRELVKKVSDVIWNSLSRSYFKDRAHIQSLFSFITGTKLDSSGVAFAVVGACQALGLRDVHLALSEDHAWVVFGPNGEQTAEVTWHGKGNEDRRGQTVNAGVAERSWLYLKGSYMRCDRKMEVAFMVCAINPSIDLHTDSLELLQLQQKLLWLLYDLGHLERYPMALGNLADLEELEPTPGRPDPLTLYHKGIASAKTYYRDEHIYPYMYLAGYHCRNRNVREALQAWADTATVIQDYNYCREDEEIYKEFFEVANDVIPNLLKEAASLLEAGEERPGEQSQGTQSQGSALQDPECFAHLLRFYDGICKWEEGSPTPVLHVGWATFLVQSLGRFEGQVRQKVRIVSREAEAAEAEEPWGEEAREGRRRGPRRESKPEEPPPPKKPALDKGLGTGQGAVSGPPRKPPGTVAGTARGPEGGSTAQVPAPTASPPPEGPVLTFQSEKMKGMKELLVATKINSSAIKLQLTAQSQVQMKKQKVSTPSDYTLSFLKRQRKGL
Put plainly: Assay 1: menin/MLL binding AlphaLISA assay, wild-type menin. Particulars: Table 30; column head does not say wild-type or mutated menin. The method, boiled down:
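Compound was preincubated 30 min at room temperature with biotinylated menin (5 nM) and MLL-AF9-FLAG lysate from HEK293 cells, pH 7.4 buffer with 5% DMSO and DTT. Bead-based Alpha signal after 60 min with streptavidin donor and anti-FLAG acceptor beads; four-parameter logistic fit gave IC50.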
Background: In Alpha technology, singlet oxygen from a donor bead excites a nearby acceptor bead.

For assay [2], the system named is human acute monocytic leukemia cell line MV-4-11. The experiment in a line: Assay 2: cell proliferation assay (ATP quantitation, CellTiter-Glo), MV-4-11. The format is cell-based. The following applies: MV-4-11 cells. Here is the method:
Potencies of inhibitor compounds against cell proliferation was assessed against the human acute monocytic leukemia cell line MV-4-11 (ATCC® CRL-9591™) based on ATP quantitation. MV-4-11 cells or toxicity control HL-60 cells (ATCC® CCL-240™) were incubated in 96-well tissue culture plates (1.67×10^4 cells in 200 μL culture media containing 10% FBS per well) with or without test compound for 72 h at 37° C., 5% CO2. After incubation, each well was mixed by pipetting and 95 μL from each well was transferred to a well in 96-well black OptiPlate® plates (PerkinElmer). An equal volume of CellTiter-Glo® Luminescent Cell Viability Assay reagent (Promega) was added to each well, followed by mixing for 5 min on an orbital plate shaker. Luminescence was measured on a Wallac EnVision 2104 Multilabel Reader (PerkinElmer) to quantitate ATP.
In general terms: ATP-based viability assays read luminescence as a measure of living cells.

The structures appear in SMILES notation. Bounds are passed on as bounds.

As for `CC(C)N(C(=O)c1cc(F)ccc1Oc1cncnc1N1CCC2(CC(Cc3ccc(F)cc3)N(CCO)C2)C1)C(C)C` (single isomer, unassigned) [Example 26A, 5-fluoro-2-((4-(8-(4-fluorobenzyl)-7-(2-hydroxyethyl)-2,7-diazaspiro[4.4]nonan-2-yl)pyrimidin-5-yl)oxy)-N,N-diisopropylbenzamide], in assay [1], the IC50 was less than 100 nM. Further, the EC50 in assay [2] (72 h) fell in the range of 100 to 1000 nM.

Regarding `CC(C)N(C(=O)c1cc(F)ccc1Oc1cncnc1N1CCC2(CC(Cc3ccc(F)cc3)N(CCO)C2)C1)C(C)C` (single isomer, unassigned) [Example 26B, 5-fluoro-2-((4-(8-(4-fluorobenzyl)-7-(2-hydroxyethyl)-2,7-diazaspiro[4.4]nonan-2-yl)pyrimidin-5-yl)oxy)-N,N-diisopropylbenzamide], in assay [1], the IC50 is less than 100 nM. Moreover, the EC50 in assay [2] (72 h) was no less than 1000 nM.

In the case of `Cn1c(-c2cc(F)ccc2Oc2cncnc2N2CCC3(CCN(Cc4ccc5[nH]c(=O)[nH]c5c4)C3)C2)c(C2CC2)ccc1=O` (single isomer, unassigned) [Example 29A, 5-((7-(5-(2-(3-cyclopropyl-1-methyl-6-oxo-1,6-dihydropyridin-2-yl)-4-fluorophenoxy)pyrimidin-4-yl)-2,7-diazaspiro[4.4]nonan-2-yl)methyl)-1,3-dihydro-2H-benzo[d]imidazol-2-one], in assay [1], the IC50 was less than 100 nM. In addition, the EC50 in assay [2] (Homo sapiens, MV4-11, 72 h) was less than 100 nM.

`Cn1c(-c2cc(F)ccc2Oc2cncnc2N2CCC3(CCN(Cc4ccc5[nH]c(=O)[nH]c5c4)C3)C2)c(C2CC2)ccc1=O` (single isomer, unassigned) [Example 29B, 5-((7-(5-(2-(3-cyclopropyl-1-methyl-6-oxo-1,6-dihydropyridin-2-yl)-4-fluorophenoxy)pyrimidin-4-yl)-2,7-diazaspiro[4.4]nonan-2-yl)methyl)-1,3-dihydro-2H-benzo[d]imidazol-2-one]: the IC50 in assay [1] was less than 100 nM. The compound also registered an EC50 in assay [2] (72 h) of 100 to 1000 nM.

In assay [1], `CC(C)c1ccccc1-c1cc(F)ccc1Oc1cncnc1N1CCC2(CCN(Cc3ccc4[nH]c(=O)[nH]c4c3)C2)C1` (single isomer, unassigned) [Example 41A, 5-((7-(5-((5-fluoro-2′-isopropyl-[1,1′-biphenyl]-2-yl)oxy)pyrimidin-4-yl)-2,7-diazaspiro[4.4]nonan-2-yl)methyl)-1H-benzo[d]imidazol-2(3H)-one] gave an IC50 of less than 100 nM. The compound further registered an EC50 in assay [2] (Homo sapiens, MV4-11, 72 h) of less than 100 nM.

In the case of `CC(C)c1ccccc1-c1cc(F)ccc1Oc1cncnc1N1CCC2(CCN(Cc3ccc4[nH]c(=O)[nH]c4c3)C2)C1` (single isomer, unassigned) [Example 41B, 5-((7-(5-((5-fluoro-2′-isopropyl-[1,1′-biphenyl]-2-yl)oxy)pyrimidin-4-yl)-2,7-diazaspiro[4.4]nonan-2-yl)methyl)-1H-benzo[d]imidazol-2(3H)-one], in assay [1], the IC50 was less than 100 nM. In assay [2] (72 h), the EC50 was less than 100 nM.

For the compound `N#Cc1ccc(-c2cc(F)ccc2Oc2cncnc2N2CCC3(CCN(Cc4ccc5[nH]c(=O)[nH]c5c4)C3)C2)c(C2CC2)c1` (single isomer, unassigned) [Example 42A, 2-cyclopropyl-5′-fluoro-2′-((4-(7-((2-oxo-2,3-dihydro-1H-benzo[d]imidazol-5-yl)methyl)-2,7-diazaspiro[4.4]nonan-2-yl)pyrimidin-5-yl)oxy)-[1,1′-biphenyl]-4-carbonitrile], the IC50 in assay [1] is less than 100 nM. In assay [2] (Homo sapiens, MV4-11, 72 h), the half-maximal effective concentration (EC50) is less than 100 nM.

`N#Cc1ccc(-c2cc(F)ccc2Oc2cncnc2N2CCC3(CCN(Cc4ccc5[nH]c(=O)[nH]c5c4)C3)C2)c(C2CC2)c1` (single isomer, unassigned) [Example 42B, 2-cyclopropyl-5′-fluoro-2′-((4-(7-((2-oxo-2,3-dihydro-1H-benzo[d]imidazol-5-yl)methyl)-2,7-diazaspiro[4.4]nonan-2-yl)pyrimidin-5-yl)oxy)-[1,1′-biphenyl]-4-carbonitrile] came in with an IC50 in assay [1] of less than 100 nM. In assay [2] (72 h), the EC50 is less than 100 nM.

As for `CC(O)c1ccccc1-c1cc(F)ccc1Oc1cncnc1N1CCC2(CCN(Cc3ccc4[nH]c(=O)[nH]c4c3)C2)C1` (single isomer, unassigned) [Example 60A, 5-((7-(5-((5-fluoro-2′-(1-hydroxyethyl)-[1,1′-biphenyl]-2-yl)oxy)pyrimidin-4-yl)-2,7-diazaspiro[4.4]nonan-2-yl)methyl)-1H-benzo[d]imidazol-2(3H)-one], the IC50 in assay [1] is less than 100 nM. The same compound returned an EC50 in assay [2] (Homo sapiens, MV4-11, 72 h) of less than 100 nM.

For the compound `Cn1c(-c2cc(F)ccc2Oc2cncnc2N2CCC3(CCN(Cc4ccc5c(c4)[nH]c(=O)n5CCO)C3)C2)c(C2CC2)ccc1=O` (single isomer, unassigned) [Example 81A, 5-((7-(5-(2-(3-cyclopropyl-1-methyl-6-oxo-1,6-dihydropyridin-2-yl)-4-fluorophenoxy)pyrimidin-4-yl)-2,7-diazaspiro[4.4]nonan-2-yl)methyl)-1-(2-hydroxyethyl)-1H-benzo[d]imidazol-2(3H)-one], the IC50 in assay [1] was less than 100 nM. Moreover, the concentration for a half-maximal effect (EC50) in assay [2] (Homo sapiens, MV4-11, 72 h) was 100 to 1000 nM.

`Cn1c(-c2cc(F)ccc2Oc2cncnc2N2CCC3(CCN(Cc4ccc5c(c4)[nH]c(=O)n5CCO)C3)C2)c(C2CC2)ccc1=O` (single isomer, unassigned) [Example 81B, 5-((7-(5-(2-(3-cyclopropyl-1-methyl-6-oxo-1,6-dihydropyridin-2-yl)-4-fluorophenoxy)pyrimidin-4-yl)-2,7-diazaspiro[4.4]nonan-2-yl)methyl)-1-(2-hydroxyethyl)-1H-benzo[d]imidazol-2(3H)-one] had an IC50 in assay [1] of less than 100 nM. Further, the EC50 in assay [2] (72 h) is less than 100 nM.

Regarding `CC(C)c1ncncc1-c1cc(F)ccc1Oc1cncnc1N1CC2(CC(NC3CCC(C)(C#N)CC3)C2)C1` (single isomer, unassigned) [Example 148A, 4-((2-(5-(4-fluoro-2-(4-isopropylpyrimidin-5-yl)phenoxy)pyrimidin-4-yl)-2-azaspiro[3.3]heptan-6-yl)amino)-1-methylcyclohexane carbonitrile], in assay [1], the IC50 is less than 100 nM. Besides, the EC50 in assay [2] (Homo sapiens, MV4-11, 72 h) lay in the range of 100 to 1000 nM.

Turning to `CC(C)c1ncncc1-c1cc(F)ccc1Oc1cncnc1N1CC2(CC(NC3CCC(C)(C#N)CC3)C2)C1` (single isomer, unassigned) [Example 148B, 4-((2-(5-(4-fluoro-2-(4-isopropylpyrimidin-5-yl)phenoxy)pyrimidin-4-yl)-2-azaspiro[3.3]heptan-6-yl)amino)-1-methylcyclohexane carbonitrile], the IC50 in assay [1] was less than 100 nM. The concentration for a half-maximal effect (EC50) in assay [2] (72 h) fell in the range of 100 to 1000 nM.

`CC(C)c1ncncc1-c1cc(F)ccc1Oc1cncnc1N1CCC2(CCN(Cc3ccc4[nH]c(=O)[nH]c4c3)C2)C1` (single isomer, unassigned) [Example 160A, 5-((7-(5-(4-fluoro-2-(4-isopropylpyrimidin-5-yl)phenoxy)pyrimidin-4-yl)-2,7-diazaspiro[4.4]nonan-2-yl)methyl)-1,3-dihydro-2H-benzo[d]imidazol-2-one] yielded an IC50 in assay [1] of less than 100 nM. The compound also displayed an EC50 in assay [2] (Homo sapiens, MV4-11, 72 h) of less than 100 nM.

In assay [1], `CC(C)c1ncncc1-c1cc(F)ccc1Oc1cncnc1N1CCC2(CCN(Cc3ccc4[nH]c(=O)[nH]c4c3)C2)C1` (single isomer, unassigned) [Example 160B, 5-((7-(5-(4-fluoro-2-(4-isopropylpyrimidin-5-yl)phenoxy)pyrimidin-4-yl)-2,7-diazaspiro[4.4]nonan-2-yl)methyl)-1,3-dihydro-2H-benzo[d]imidazol-2-one] yielded an IC50 of less than 100 nM. The compound further displayed an EC50 in assay [2] (72 h) of less than 100 nM.

Consider `CC(C)N(C)C(=O)c1cc(F)ccc1Oc1cncnc1N1CCC2(CCN(Cc3ccc4[nH]c(=O)[nH]c4c3)C2)C1` (single isomer, unassigned) [Example 183A, 5-fluoro-N-isopropyl-N-methyl-2-((4-(7-((2-oxo-2,3-dihydro-1H-benzo[d]imidazol-5-yl)methyl)-2,7-diazaspiro[4.4]nonan-2-yl)pyrimidin-5-yl)oxy)benzamide], for which the IC50 in assay [1] was less than 100 nM. The EC50 in assay [2] (Homo sapiens, MV4-11, 72 h) is less than 100 nM.

In assay [1], `CC(C)N(C)C(=O)c1cc(F)ccc1Oc1cncnc1N1CCC2(CCN(Cc3ccc4[nH]c(=O)[nH]c4c3)C2)C1` (single isomer, unassigned) [Example 183B, 5-fluoro-N-isopropyl-N-methyl-2-((4-(7-((2-oxo-2,3-dihydro-1H-benzo[d]imidazol-5-yl)methyl)-2,7-diazaspiro[4.4]nonan-2-yl)pyrimidin-5-yl)oxy)benzamide] returned an IC50 of less than 100 nM. The compound also registered an EC50 in assay [2] (72 h) of less than 100 nM.

By IC50 is commonly meant the concentration that inhibits the measured activity by half. Low values mean higher potency, high ones lower potency. A word on the EC50: it is the concentration at which the effect is half-maximal.
